Assay results taken from patent publication US20250339391A1, “METHODS FOR EFFECTIVE MANAGEMENT OF PAIN” (South Rampart Pharma, Inc., priority 2024, published 2025).
Entries after “also recorded” stand apart in the source; their conditions may differ.

Tests used:
[1] = test system: conscious telemetered beagle dogs; assay: Cardiovascular effect in conscious telemetered beagle dogs (GLP); format: in vivo, dog
Experimental: The effects of SRP-001 on hERG current amplitude at physiologic temperatures were evaluated over a nominal concentration range of 0.1 μM to 100M. A vehicle group (10% DMSO) was included in the study for comparison, and dofetilide (10 nM) was used as a reference substance. The vehicle and positive controls indicated appropriate sensitivity of the test systems. […] Next, the potential acute effects of oral SRP-001 on cardiovascular function in conscious telemetered beagle dogs was done using a Latin Square design; 4 male naïve beagle dogs each received vehicle (10% DMSO: 10% labrasol: 80% PEG400) and three doses (30, 90, and 150 mg/kg) of SRP-001 nanosuspension by oral gavage. […] A single dose was administered on the day of dosing, and a washout period of seven days was allowed between doses. One-min means of hemodynamic parameters, as well as ECG parameters and body temperature, were measured for a period of at least 24 h. One-min tracings of the ECGs were obtained at 15 min prior to dosing and at 30 min, 1, 2, 4, 8, 12, and 24 h post-dose. Qualitative evaluation of the ECGs was done by a board-certified veterinary cardiologist.

[2] = test system: conscious male Sprague-Dawley rats; assay: Pulmonary function evaluation in conscious male Sprague-Dawley rats (GLP); format: in vivo, rat; settings: 220, 440 and 660 mg/kg oral
Experimental: The potential effects of orally administered SRP-001 on respiratory rate, tidal volume, and minute volume in conscious male Sprague-Dawley rats was studied in 24 male rats. The rodents were trained for two days in the head-out plethysmograph chamber for 15-17 min each prior to the experiment. On the day of dosing, each animal was weighed and placed in the plethysmograph chamber, and baseline respiratory parameters were obtained for 5 min following an approximately 5-min stabilization period. The rats were then removed from the chamber and dosed by oral gavage. Three groups of six male Sprague-Dawley rats each were orally administered SRP-001 at a single dose of 220, 440, or 660 mg/kg at a dose volume of 10 mL/kg. […] Following dosing, each animal was returned to its designated plethysmograph chamber, and the respiratory parameters were recorded at 30 min (±5 min), 2, 4, and 6 h (±15 min). Animals were allowed to stabilize in the plethysmograph chamber for at least 5 min before each reading was taken. The following parameters were acquired, recorded, and analyzed using Ponemah Physiology Platform (Ponemah v.5.20 Pulmonary); Respiratory rate, Tidal Volume, and Minute Volume, Values for the test article treated group were compared to the vehicle control values using a two-way repeated measures ANOVA followed by a Bonferroni Multiple Comparison Test (SigmaStat, v. 4.0). […]

[3] = Genotoxicity battery, weight of the evidence; settings: Ames, chromosomal aberration, micronucleus and Comet assays
Experimental: To transition SRP-001 into the clinic for human use, a full set of in vivo and in vitro genotoxicity studies were performed to assess the potential genotoxicity of SRP-001.
To further evaluate the potential genotoxicity of SRP-001 and determine the validity of the in vitro findings, a second in vivo assay, a GLP-compliant Comet assay, was conducted in accordance with ICH S2(R1) Guidance on Genotoxicity Testing and Data Interpretation for Pharmaceuticals Intended for Human Use. […] SRP-001 was tested to evaluate its mutagenic potential by measuring its ability to induce reverse mutations at selected loci of several strains of Salmonella typhimurium (S. typhimurium) and at the tryptophan locus of Escherichia coli (E. coli) strain WP2 uvrA in the presence and absence of an exogenous metabolic activation system (Bioreliance, Rockville, MD USA). Dimethyl sulfoxide (10% DMSO) was used as the vehicle. The dose levels tested in the preliminary toxicity assay were 6.67, 10.0, 33.3, 66.7, 100, 333, 667, 1000, 3333, and 5000 μg per plate. No precipitate was observed. […] The dose levels tested in the mutagenicity assay were 100, 333, 667, 1000, 3333, and 5000 μg per plate. […] In the preliminary toxicity assay, the doses tested ranged from 0.0405 to 405 μg/mL (1 mM), which was the limit dose for this assay (Bioreliance, Rockville, MD USA).

[4] = test system: male Sprague-Dawley rats; settings: rat, in vivo
Experimental: 1) Dose-Range-Finding Oral Toxicity Study with SRP-001 in Sprague-Dawley Rats (non-GLP) As part of a two-phase study, the maximum tolerated dose (MTD) of SRP-001 when administered via gavage once to Sprague-Dawley Rats using an ascending/descending dose design (Calvert Labs/Altasciences, Scott Township, PA USA). A total of 12 male Sprague-Dawley rats (3/dose group), approximately 8-9 weeks old and weighing 245-307 g, were administered single doses of […], 1000, 1500, or 2000 mg/kg SRP-001. Mortality/morbidity was performed twice daily and once prior to scheduled sacrifice. Clinical observations were evaluated prior to each dose administration and approximately 1-3 h post-dose, once daily on non-dosing days and additionally as needed. Body weights were recorded for animals in Groups 1-4 prior to randomization/selection, each dose administration, and scheduled sacrifice on day 3. Food consumption was recorded on day 3. […] Based on the results of this study, doses for the second phase were selected.

[5] = test system: Beagle dogs; assay: Dose-range-finding oral toxicity study in Beagle dogs, Phase I (non-GLP); format: in vivo, dog
Experimental: 3) A Dose-Range-Finding and 7-day Repeat-Dose Oral Toxicity Study of SRP-001 in Beagle dogs (Non-GLP) Two beagle dogs (1/sex) were administered 30, 100, 250, or 500 mg/kg SRP-001. […] After a period of at least 2 d (minimum of 44 h) following the previous dose of test article, additional dose levels of SRP-001, as indicated above, were administered by oral gavage to the same 2 dogs (1 male and 1 female). Each dose was based on the dog's most recent body weight. Mortality/morbidity was observed twice daily and once prior to scheduled sacrifice. Body weights were recorded prior to randomization/selection, prior to each dose administration, and prior to scheduled sacrifice. At scheduled sacrifice, a gross necropsy was performed, and the tissues were appropriately discarded. […] Doses for Phase II of the study were set based on Phase I results. The actual dose amounts selected for Phase II of the study were 0, 30, 100, or 300 mg/kg/d of SRP-001. These doses were administered once daily for seven consecutive days to 1 Beagle dog/sex/dose.

SMILES: CCN(CC)C(=O)c1ccccc1S(=O)(=O)NCC(=O)Nc1ccc(O)cc1 [SRP-001, N,N-diethyl-2-[[2-(4-hydroxyanilino)-2-oxo-ethyl]sulfamoyl]benzamide]
- effects on blood pressure, heart rate, ECG morphology, ECG measurements, body temperature ([1]; 30, 90 and 150 mg/kg oral): no effects on pulmonary function or cardio-telemetry; also recorded: did not induce any biologically relevant effects
- QTc ([1]; telemetered safety pharmacology study in dogs): no prolonged QTc
- effects on respiratory rate, tidal volume, minute volume [2]: no effects on pulmonary function or cardio-telemetry; also recorded: did not induce any significant effects
- genotoxicity, overall conclusion [3]: not genotoxic; also recorded: negative for genotoxicity
- clinical observations after single dose [4]: Nearly all the animals appeared normal following dosing
- mortality after single doses [4]: did not result in any mortality
- body weight and food consumption ([5]; 30, 100, 250 or 500 mg/kg): No test article-related effects
- clinical signs ([5]; 30, 100, 250 or 500 mg/kg oral gavage): Loose feces and emesis were observed following most doses
